{"source": "patent US11684594B2", "about": "“Antifungal prophylaxis for cornea” (PRESIDENT AND FELLOWS OF HARVARD COLLEGE, priority 2020, dated 2023)", "key": {"[1]": {"test_system": "Candida, Aspergillus, and Fusarium", "conditions": "0.01% hypochlorous acid (Avenova), cited from earlier work"}, "[2]": {"conditions": "clinical or long-term topical ocular use, cited from earlier work"}, "[3]": {"test_system": "human corneal-limbal epithelial cells (HCLE)", "assay_type": "cell-based", "procedure": "In Vitro Toxicity Tests. Trypan Blue assays for toxicity of various antimicrobial agents were conducted using human corneal cells. Telomerase-immortalized human corneal-limbal epithelial cells (HCLE) were thawed at 37° C. and quickly transferred to a sterile T75 cell culture flask. Cells were grown in keratinocyte serum-free medium (KSFM; Gibco™; Thermofisher Scientific; Waltham, Mass.) supplemented with bovine pituitary extract (25 μg/mL), epidermal growth factor (0.2 ng/mL), calcium chloride (0.4 mM CaCl2[…]2H2O; Sigma-Aldrich; St Louis, Mo.), and 1× penicillin/streptomycin, at 37° C. with 5% CO2. Once cells were confluent, they were passaged following trypsinization in 12- or 24-well plates. After incubation with Trypsin-EDTA (0.05%, Gibco™; Thermofisher Scientific; Waltham, Mass.) for 5-10 min at 37° C. with 5% CO2, the reaction was stopped with an equivalent volume of neutralizing medium (Dulbecco's Modified Eagle Medium/Nutrient Mixture F-12, DMEM/F-12, with HEPES and 10% newborn calf serum), centrifuged at 5,000×g for 5 min, and re-suspended in supplemented KSFM. Experiments were performed using cells from passages 31 to 36. Once cells reached confluency, they were gently washed twice with DMEM/F-12 (Gibco™; Thermofisher Scientific; Waltham, Mass.) and incubated with an antimicrobial agent for 1 min (n=2 wells per group). Controls included 1×PBS (diluent) and 1% TX-100 (cell permeabilizer). After exposure to various agents, the cells were washed three times with DMEM/F-12, incubated with 0.2% Trypan Blue for 5 min, and washed again three times with DMEM/F-12. The remaining media was aspirated and replaced with 1×PBS for imaging. Macro-images of the culture plate were taken with a smartphone camera (iPhone 7; Apple Inc.; Cupertino, Calif.), and 10× images were taken with an inverted microscope (Eclipse TS100; Nikon; Tokyo, Japan) attached to a digital camera (SPOT Insight Fire Wire; Diagnostic Instruments Inc.; Sterling Heights, Mich.). 3-6 images/well were obtained in clockwise direction from areas immediately adjacent to the center of the well, and without overlapping areas. Images were quantified in ImageJ Fiji software to determine the amount of cell uptake of Trypan Blue. Macros were created from the Color Threshoulder plugin (G. Landini) to batch process the images after color matching in Photoshop to reference images per treatment group. % Area of Trypan Blue staining per image was calculated as follows: (area of blue/area of all)×100%."}, "C. albicans (ATCC 24433)": {"test_system": "C. albicans (ATCC 24433)", "assay": "In vitro time kill test, yeast", "assay_type": "cell-based, Candida albicans", "conditions": "for Ratio fungicidal activity/cytotoxicity: FIG. 3, # of log10 reduction / fold-change in Trypan Blue staining vs PBS (HCLE), 1 min contact, C. albicans", "procedure": "(§1) In Vitro Time Kill Tests. Microtiter time kill tests were carried out in vitro according to the published CLSI methods (M27-A2).^22\nThe inoculum was prepared by adjustment of the optical density at 600 nm (OD600) to 1.0 (corresponding to approximately 1×10^6 CFU/mL), and dilution by 1:10 in the final solution. To confirm the starting inoculum size, yeasts were plated […] and colonies counted after growth for 24 hrs at 37° C. The test solutions were neutralized at each time point by ten-fold dilution in Dey-Engley neutralizing broth (Sigma-Aldrich; St Louis, Mo.), and serially track diluted (PMID: 9343684) on Sabouraud dextrose agar (six serial 1:10 dilutions, 0.01 mL each) in technical triplicate. Colonies were counted and recorded following aerobic incubation for 24 hrs at 37° C.\n(§2) To investigate the fungicidal activity of various antibiotics and antimicrobials, the reduction in fungal load after short contact times (0-15 min, FIGS. 2-3), to account for the effect of rapid dilution by the tear film, as occurs in patients after topical instillation, was measured.^23 The detection limit for time kill tests was approximately 100 CFU/mL for C. albicans, and 1 CFU/mL for F. solani and A. fumigatus (corresponding to a ≥3 log difference from the starting inoculum). 20-300 cells were considered a reliable counting range per dilution, and values were averaged when more than one dilution in the same plate were within this range."}, "[4]": {"conditions": "1:1 IL at 10 mM in 1×PBS"}, "[5]": {"test_system": "Candida albicans (ATCC 24433), Fusarium solani (ATCC MYA-3636), and Aspergillus fumigatus (ATCC MYA-3626)", "assay": "In vitro antifungal testing, statements not resolved by species", "assay_type": "cell-based", "procedure": "Several commonly used antibiotics were tested in vitro against Candida albicans (ATCC 24433), Fusarium solani (ATCC MYA-3636), and Aspergillus fumigatus (ATCC MYA-3626). Time kill activity and minimum inhibitory concentrations (MIC) were determined. Also the antiseptics benzalkonium chloride (BAK), povidone-iodine (PI), and ionic liquids (ILs) consisting of a 1:1 mixture of choline and undecanoic acid, were tested. Toxicity was assayed in vitro on cultures of human corneal epithelial cells, subjected to Trypan Blue staining. Adhesion and tissue invasion experiments were also carried out, with or without γ-irradiation, and by analysis with fluorescent microscopy.\nas §1"}, "[6]": {"test_system": "A. fumigatus (ATCC MYA-3626)", "assay": "In vitro time kill test, filamentous fungi", "assay_type": "cell-based, Aspergillus fumigatus", "conditions": "for Ratio fungicidal activity/cytotoxicity: FIG. 3, # of log10 reduction / fold-change in Trypan Blue staining vs PBS (HCLE), 1 min contact, A. fumigatus", "procedure": "as §1\n(§3) ii) Filamentous fungi: The antibiotic solutions, at either full or 1/10 strength, and antiseptics were inoculated with approximately 2×10^5-2×10^6 conidia/mL of F. solani or A. fumigatus in RPMI broth (buffered with MOPS at pH 7.0; Mediatech; Manassas, Va.) for 0-15 min. Conidia were collected by flooding the agar plates with 10 mL of sterile 1×PBS and 0.1% Tween® 20 (Sigma Aldrich; St Louis, Mo.). The solution was transferred to a sterile conical tube, and particles were allowed to settle for 10 min. The resulting supernatant was transferred to a new sterile conical tube and centrifuged at 3,000×g for 5 min. The supernatant was discarded, the remaining pellet was re-suspended in RPMI broth (buffered with MOPS at pH 7.0), and the OD600 was adjusted to 1.0. In the final test solutions, at each time point the inoculum was diluted 1:10 and neutralized in Dey-Engley neutralizing broth (Sigma-Aldrich; St Louis, Mo.). Neutralized cultures were then serially diluted and plated on Sabouraud dextrose agar (two serial 1:10 dilutions, 0.1 mL each) in technical duplicate. Viable conidia were counted and recorded following aerobic incubation for 48 hrs (or as soon as growth was visible) at 25-35° C.\nas §2"}, "[7]": {"test_system": "F. solani (ATCC MYA-3636)", "assay": "In vitro time kill test, filamentous fungi", "assay_type": "cell-based, Fusarium solani", "conditions": "for Ratio fungicidal activity/cytotoxicity: FIG. 3, # of log10 reduction / fold-change in Trypan Blue staining vs PBS (HCLE), 1 min contact, F. solani", "procedure": "as §1, §3, §2"}}, "note": "Like-named read-outs stand apart in the source and are kept apart here."}
{"compound": "OCl", "note": "[hypochlorous acid]", "values": [{"measurement": "Fungicidal activity (words)", "setting": "[1]", "value": "rapid fungicidal and sporicidal activity within one minute of exposure time"}, {"measurement": "Fungicidal activity (words)", "setting": "[1]; listed as Hypochlorous acid", "value": "highly effective against fungi"}, {"measurement": "Tolerability / ocular safety (words)", "setting": "[2]", "value": "well tolerated"}, {"measurement": "Tolerability / ocular safety (words)", "setting": "[2]; listed as Hypochlorous acid", "value": "easily tolerated"}]}
{"compound": "Choline undecanoate (1:1) [choline-undecanoate IL]", "values": [{"measurement": "Trypan Blue staining (% stained area per image) compared to control treatment TX-100 (1%)", "setting": "[3]; FIG. 2A, confluent HCLE monolayers, 1 min of contact, BAK 40 µg/mL, PI 0.5%, #3-IL 10 mM", "value": "significantly lower amount of staining"}, {"measurement": "Cytotoxicity / toxicity", "setting": "[3]; HCLE cells, post-exposure Trypan blue staining", "value": "virtually non-toxic"}, {"measurement": "Reduction in viable C. albicans", "setting": "C. albicans (ATCC 24433); 10 mM, within 1 min", "value": "1-4 log"}, {"measurement": "Ratio fungicidal activity/cytotoxicity", "setting": "C. albicans (ATCC 24433)", "value": "> 1"}, {"measurement": "Ratio fungicidal activity/cytotoxicity", "setting": "C. albicans (ATCC 24433); listed as novel IL", "value": "highest ratios"}, {"measurement": "Light tolerance", "setting": "[4]", "value": "tolerant of light exposure"}, {"measurement": "pH", "setting": "[4]", "value": "7.2±0.2"}, {"measurement": "Stability", "setting": "[4]; room temperature", "value": "stable at room temperature for months"}, {"measurement": "Efficacy/toxicity ratio, overall rank", "setting": "[5]; fungicidal activity vs HCLE cytotoxicity, species not resolved", "value": "performed even better"}, {"measurement": "Antifungal / fungicidal activity in vitro", "setting": "[5]; species not resolved, agents at eye-drop or stated concentration", "value": "effective"}, {"measurement": "Contact time within which in vitro fungicidal activity was exhibited", "setting": "[5]; species-, contact time- and concentration-dependent", "value": "1 to 15", "unit": "min"}, {"measurement": "Reduction in viable A. fumigatus", "setting": "[6]; 10 mM, within 1 min", "value": "1-4 log"}, {"measurement": "Ratio fungicidal activity/cytotoxicity", "setting": "[6]", "value": "> 1"}, {"measurement": "Ratio fungicidal activity/cytotoxicity", "setting": "[6]; listed as novel IL", "value": "highest ratios"}, {"measurement": "Reduction in viable F. solani", "setting": "[7]; 10 mM, within 1 min", "value": "1-4 log"}, {"measurement": "Reduction in viable conidia", "setting": "[7]; FIG. 2C, within 1 min of contact, Polytrim full strength, PI 0.5%, BAK 40 µg/mL, #3-IL 10 mM", "value": 2, "unit": "log10"}, {"measurement": "Ratio fungicidal activity/cytotoxicity", "setting": "[7]", "value": "> 1"}, {"measurement": "Ratio fungicidal activity/cytotoxicity", "setting": "[7]; listed as novel IL", "value": "highest ratios"}]}
